Laboratory results reported in US12421210B2, “Fused bicyclic heterocycles as therapeutic agents” (NEW YORK UNIVERSITY, priority 2018, dated 2025).

Biological target: human NAMPT enzyme (His-hNAMPT) (Homo sapiens (Human), UniProt P43490)
Experiment: NAMPT enzymatic inhibition assay (fluorescence, NADH product)
Format: biochemical
Conditions: [BPS]; read-out: NAMPT IC50 (μM) [BPS]

Chain of human NAMPT enzyme (His-hNAMPT) (P43490 whole entry): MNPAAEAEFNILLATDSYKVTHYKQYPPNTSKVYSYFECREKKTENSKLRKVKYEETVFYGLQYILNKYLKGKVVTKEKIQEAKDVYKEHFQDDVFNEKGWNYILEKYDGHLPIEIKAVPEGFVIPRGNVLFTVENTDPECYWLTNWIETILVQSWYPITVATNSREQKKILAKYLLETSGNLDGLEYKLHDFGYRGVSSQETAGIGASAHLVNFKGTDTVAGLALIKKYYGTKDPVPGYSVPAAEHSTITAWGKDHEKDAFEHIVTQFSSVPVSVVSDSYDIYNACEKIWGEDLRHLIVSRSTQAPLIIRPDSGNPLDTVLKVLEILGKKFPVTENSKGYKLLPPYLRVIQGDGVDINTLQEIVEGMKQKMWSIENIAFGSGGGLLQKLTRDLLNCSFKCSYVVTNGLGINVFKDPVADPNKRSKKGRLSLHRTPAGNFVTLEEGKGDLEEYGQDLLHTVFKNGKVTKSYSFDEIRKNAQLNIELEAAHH

| Structure (SMILES) | IC50 [µM] |
| --- | --- |
| O=C(NCC[C@@H]1[C@H]2CN(C(=O)NC3CCOCC3)C[C@@H]12)c1cc2ccncc2o1 [Example 59, N-(2-((1R,5S,6s)-3-((tetrahydro-2H-pyran-4-yl)carbamoyl)-3-azabicyclo[3.1.0]hexan-6-yl)ethyl)furo[2,3-c]pyridine-2-carboxamide] | 0.5 to 0.99 |
| CCN(CC)C(=O)N1C[C@@H]2[C@@H](CCNC(=O)c3cc4ccncc4o3)[C@@H]2C1 [Example 60, N-(2-((1R,5S,6s)-3-(diethylcarbamoyl)-3-azabicyclo[3.1.0]hexan-6-yl)ethyl)furo[2,3-c]pyridine-2-carboxamide] | 0.01 to 0.49 |
| O=C(NCC[C@@H]1[C@H]2CN(C(=O)OC3CCOCC3)C[C@@H]12)c1cc2ccncc2o1 [Example 61, (1R,5S,6s)-3-tetrahydro-2H-pyran-4-yl 6-(2-(furo[2,3-c]pyridine-2-carboxamido)ethyl)-3-azabicyclo[3.1.0]hexane-3-carboxylate] | 0.01 to 0.49 |
| CC1(OC(=O)N2C[C@@H]3[C@@H](CCNC(=O)c4nc5ccncc5s4)[C@@H]3C2)COC1 [Example 62, (1R,5S,6s)-3-methyloxetan-3-yl 6-(2-(thiazolo[5,4-c]pyridine-2-carboxamido)ethyl)-3-azabicyclo[3.1.0]hexane-3-carboxylate] | 1 to 29 |
| O=C(NCC[C@@H]1[C@H]2CN(C(=O)c3ccccc3)C[C@@H]12)c1ccc2nccn2c1 [Example 63, N-(2-((1R,5S,6s)-3-benzoyl-3-azabicyclo[3.1.0]hexan-6-yl)ethyl)imidazo[1,2-a]pyridine-6-carboxamide] | 0.01 to 0.49 |
| CC(C)(C)NC(=O)N1C[C@@H]2[C@@H](CCNC(=O)c3ccc4nccn4c3)[C@@H]2C1 [Example 64, N-(2-((1R,5S,6s)-3-(tert-butylcarbamoyl)-3-azabicyclo[3.1.0]hexan-6-yl)ethyl)imidazo[1,2-a]pyridine-6-carboxamide] | 0.01 to 0.49 |
| O=C(NCC[C@@H]1[C@H]2CN(C(=O)Nc3ccccc3)C[C@@H]12)c1ccc2nccn2c1 [Example 65, N-(2-((1R,5S,6s)-3-(phenylcarbamoyl)-3-azabicyclo[3.1.0]hexan-6-yl)ethyl)imidazo[1,2-a]pyridine-6-carboxamide] | 1 to 29 |
| O=C(NCC[C@@H]1[C@H]2CN(C(=O)N3CCCC3)C[C@@H]12)c1ccc2nccn2c1 [Example 66, N-(2-((1R,5S,6s)-3-(pyrrolidine-1-carbonyl)-3-azabicyclo[3.1.0]hexan-6-yl)ethyl)imidazo[1,2-a]pyridine-6-carboxamide] | 1 to 29 |
| O=C(NCC[C@@H]1[C@H]2CN(C(=O)OC3CCOCC3)C[C@@H]12)c1ccc2nccn2c1 [Example 67, (1R,5S,6s)-tetrahydro-2H-pyran-4-yl 6-(2-(imidazo[1,2-a]pyridine-6-carboxamido)ethyl)-3-azabicyclo[3.1.0]hexane-3-carboxylate] | 0.01 to 0.49 |
| O=C(NCC[C@@H]1[C@H]2CN(S(=O)(=O)C3CCOCC3)C[C@@H]12)c1ccc2nccn2c1 [Example 68, N-(2-((1R,5S,6s)-3-((tetrahydro-2H-pyran-4-yl)sulfonyl)-3-azabicyclo[3.1.0]hexan-6-yl)ethyl)imidazo[1,2-a]pyridine-6-carboxamide] | 1 to 29 |
| CC(C)(C)CNC(=O)N1C[C@@H]2[C@@H](CCNC(=O)c3cc4ccncc4o3)[C@@H]2C1 [Example 69, N-(2-((1R,5S,6s)-3-(neopentylcarbamoyl)-3-azabicyclo[3.1.0]hexan-6-yl)ethyl)furo[2,3-c]pyridine-2-carboxamide] | 0.5 to 0.99 |
| O=C(NCC[C@@H]1[C@H]2CN(C(=O)N3CCCC3)C[C@@H]12)c1cc2ccncc2o1 [Example 70, N-(2-((1R,5S,6s)-3-(pyrrolidine-1-carbonyl)-3-azabicyclo[3.1.0]hexan-6-yl)ethyl)furo[2,3-c]pyridine-2-carboxamide] | 0.01 to 0.49 |
| O=C(NCC[C@@H]1[C@H]2CN(C(=O)OC3CCCC3)C[C@@H]12)c1cc2ccncc2o1 [Example 71, (1R,5S,6s)-(cyclopentyl) 6-(2-(furo[2,3-c]pyridine-2-carboxamido)ethyl)-3-azabicyclo[3.1.0]hexane-3-carboxylate] | 0.01 to 0.49 |
| O=C(NCC[C@@H]1[C@H]2CN(S(=O)(=O)c3ccc(F)cc3)C[C@@H]12)c1cc2ccncc2o1 [Example 72, N-(2-((1R,5S,6s)-3-((4-fluorophenyl)sulfonyl)-3-azabicyclo[3.1.0]hexan-6-yl)ethyl)furo[2,3-c]pyridine-2-carboxamide] | 0.01 to 0.49 |
| O=C(NCC[C@@H]1[C@H]2CN(S(=O)(=O)C3CCOCC3)C[C@@H]12)c1cc2ccncc2o1 [Example 73, N-(2-((1R,5S,6s)-3-((tetrahydro-2H-pyran-4-yl)sulfonyl)-3-azabicyclo[3.1.0]hexan-6-yl)ethyl)furo[2,3-c]pyridine-2-carboxamide] | 1 to 29 |
| CC1(OC(=O)N2C[C@@H]3[C@@H](CCNC(=O)c4cc5cc(N)ncc5s4)[C@@H]3C2)COC1 [Example 74, (1R,5S,6s)-3-methyloxetan-3-yl 6-(2-(5-aminothieno[2,3-c]pyridine-2-carboxamido)ethyl)-3-azabicyclo[3.1.0]hexane-3-carboxylate] | 0.01 to 0.49 |
| CC(C)(C)NC(=O)N1C[C@@H]2[C@@H](CCNC(=O)/C=C/c3cccnc3)[C@@H]2C1 [Example 75, (1R,5S,6s)-N-(tert-butyl)-6-(2-((E)-3-(pyridin-3-yl)acrylamido)ethyl)-3-azabicyclo[3.1.0]hexane-3-carboxamide] | 0.01 to 0.49 |
| O=C(NCC[C@@H]1[C@H]2CN(C(=O)c3ccccc3)C[C@@H]12)c1cnc2nccn2c1 [Example 76, N-(2-((1R,5S,6s)-3-benzoyl-3-azabicyclo[3.1.0]hexan-6-yl)ethyl)imidazo[1,2-a]pyrimidine-6-carboxamide] | 0.01 to 0.49 |
| CC(C)(C)NC(=O)N1C[C@@H]2[C@@H](CCNC(=O)c3cnc4nccn4c3)[C@@H]2C1 [Example 77, N-(2-((1R,5S,6s)-3-(tert-butylcarbamoyl)-3-azabicyclo[3.1.0]hexan-6-yl)ethyl)imidazo[1,2-a]pyrimidine-6-carboxamide] | 0.01 to 0.49 |
| O=C(NCC[C@@H]1[C@H]2CN(C(=O)Nc3ccccc3)C[C@@H]12)c1cnc2nccn2c1 [Example 78, N-(2-((1R,5S,6s)-3-(phenylcarbamoyl)-3-azabicyclo[3.1.0]hexan-6-yl)ethyl)imidazo[1,2-a]pyrimidine-6-carboxamide] | 0.5 to 0.99 |
| O=C(NCC[C@@H]1[C@H]2CN(C(=O)OC3CCOCC3)C[C@@H]12)c1cnc2nccn2c1 [Example 79, (1R,5S,6s)-tetrahydro-2H-pyran-4-yl 6-(2-(imidazo[1,2-a]pyrimidine-6-carboxamido)ethyl)-3-azabicyclo[3.1.0]hexane-3-carboxylate] | 0.01 to 0.49 |
| O=C(NCC[C@@H]1[C@H]2CN(S(=O)(=O)C3CCOCC3)C[C@@H]12)c1cnc2nccn2c1 [Example 80, N-(2-((1R,5S,6s)-3-((tetrahydro-2H-pyran-4-yl)sulfonyl)-3-azabicyclo[3.1.0]hexan-6-yl)ethyl)imidazo[1,2-a]pyrimidine-6-carboxamide] | 1 to 29 |
| CC(C)(C)NC(=O)N1C[C@@H]2[C@@H](CCNC(=O)c3cc(-c4cccnc4)on3)[C@@H]2C1 [Example 81, N-(2-((1R,5S,6s)-3-(tert-butylcarbamoyl)-3-azabicyclo[3.1.0]hexan-6-yl)ethyl)-5-(pyridin-3-yl)isoxazole-3-carboxamide] | < 0.01 |
